We go through one molecule from patent US20160312240A1, “MODIFIED PYR/PYL RECEPTORS ACTIVATED BY ORTHOGONAL LIGANDS” (The Regents of the University of California, priority 2010, published 2016).

For assay [1], the target named is T1, PYR1 K59R,Y120H,M158I triple mutant (Arabidopsis thaliana, UniProt O49686, K59R/M158I/Y120H).
T1 construct: 6×-His (N); made in house
The assay can be described thus: In vitro receptor (PP2C) assay, 2:1 receptor to phosphatase. Type of assay: biochemical. The method, then: FIGS. 2A-2B. […] FIG. 2A. The mutants (listed on left side of panel) were constructed in pBD-PYR1 and transformed into Y190 pAD-HAB1 yeast cells. The transformants were then grown on increasing concentrations of fenhexamid and scored for responsiveness using X-gal staining, performed as described in Park et al., 2009. As shown, the mutations K59R, Y120H, and M1581 are necessary for fenhexamid response by 27C-2. FIG. 2B. In vitro characterization of the PYR1 K59R, Y120H, M158I mutant. Recombinant wild-type and mutant PYR1 proteins were produced as described previously and used in PP2C assays, as described previously (Park et al., 2009), with the exception that a 2:1 ratio of receptor to phosphatase was utilized.
To establish the relevance of the residues identified by our screens, we focused on a highly sensitive fenhexamid-responsive mutant identified, 27C-2, which contains 5 mutations (P42S, K59R, R74C, Y120H, and M158I; SEQ ID NO:171; see Table 8) in comparison to the wild-type PYR1 sequence. […] To probe the role of the 5 mutations in fenhexamid response, each of these residues were reverted back to the wild-type residue using site-directed mutagenesis.

The subject of assay [2] is PYR/PYL-PP2C protein-protein interactions. The experiment in a line: Yeast competition screen: reduction of ABA-promoted PYR/PYL-PP2C interaction. The conditions noted are these: 100 nM ABA and 100 μM test chemical (1000-fold excess), yeast strains. Type of assay: cell-based. From the text: To isolate PYR1 orthogonal receptors, a two-step process was used. First, a large collection of compounds was screened to identify compounds that weakly interact with receptors, defined as such by their ability to displace receptor-bound ABA in competition experiments. Once weak binders were identified, those with the most desirable properties from an end-use perspective were used as targets for iterative mutagenesis and selection schemes. Pre-selection of weak-binding ligands improves the frequency of isolating new receptor proteins, because fewer alterations of the ligand binding site are required to achieve molecular recognition. However, pre-selection is not a prerequisite for success.
Pre-selection of ligands. 74 structurally diverse agrochemicals were obtained, selected from a larger set of approximately 1500 commercially available agrochemicals. These 74 compounds were tested for their ability to reduce ABA-promoted PYR/PYL-PP2C protein-protein interactions in suitable yeast strains when added at 1000-fold excess relative to ABA (i.e. 100 nM ABA and 100 μM test chemical).

In assay [3] the test system is PYR1 variants 27B-1, 27B-2, 27B-3, 27B-4, 27B-7, 27B-8 (Table 7). The assay can be described thus: MAV99 growth selection, second round of shuffling (27B' library). Type of assay: cell-based, Arabidopsis. The settings on record: 20 μM fenhexamid; media lacking uracil; Table 7 variants. As to the method:
To improve fenhexamid receptor sensitivity, DNA shuffling was employed using the same general experimental scheme outlined previously. Briefly, equimolar amounts of plasmid DNA for the fenhexamid receptors shown in Table 1 were pooled and combined with an equimolar amount of the ePCR1 library DNA. The pooled templates were utilized for DNA shuffling, which was conducted as described in Example 1. A library (named “27”) of ˜400,000 shuffled variants was prepared. The DNA for this library was introduced into the MAV99 pAD-HAB 1 yeast strain as described above and the resulting yeast cells collected and grown on FOA-containing plates to reduce constitutive mutants in the library, yielding the 27B′ library. The 27B′ library was plated onto media lacking uracil but containing 20 μM fenhexamid. ˜50 positives were selected from these plates and subsequently retested on media lacking […] to distinguish constitutive mutants (i.e., false positives) from those mutants that grow specifically in response to fenhexamid (i.e., true positives). The PYR1 coding sequences for the true positives were sequenced to yield the following series of fenhexamid-responsive PYR1 variants (Table 7): […]

The subject of assay [4] is PYR1 variants 27C-1, 27C-2, 27C-3, 27C-5, 27C-16, 27C-18, 27C-19, 27C-20, 27C-21 (Table 8). The assay can be described thus: MAV99 growth selection, third round of shuffling. Type of assay: cell-based, Arabidopsis. The conditions noted are these: 1.5 μM fenhexamid; media lacking uracil; Table 8 variants. As to the method: A third round of shuffling was conducted by combining DNA for the “27B′” mutants shown in Table 7 and ePCR1 library to create a library of ˜150,000 clones which was then transformed into MAV99 pAD-HAB 1. Constitutive mutants were then depleted by growth on FOA after which fenhexamid sensitive mutants were selected by growth on media lacking uracil but containing 1.5 μM fenhexamid, using the methods described above.

The target in assay [5] is T2, PYR1 mutant 27-9 (Arabidopsis thaliana, UniProt O49686, E153G/K59R/P42S/Y120C).
T2 construct: expressed in transfected cells; host or cells: S. cerevisiae YRG-2 expressing pAD-HAB1
T2 sequence (O49686 whole entry P42S/K59R/Y120C/E153G): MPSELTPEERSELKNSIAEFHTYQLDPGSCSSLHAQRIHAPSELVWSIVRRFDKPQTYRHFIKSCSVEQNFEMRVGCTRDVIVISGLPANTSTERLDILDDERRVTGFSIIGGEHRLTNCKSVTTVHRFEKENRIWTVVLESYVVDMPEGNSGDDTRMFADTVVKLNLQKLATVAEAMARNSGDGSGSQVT
T2 sequence (Q9CAJ0 whole entry, further chain): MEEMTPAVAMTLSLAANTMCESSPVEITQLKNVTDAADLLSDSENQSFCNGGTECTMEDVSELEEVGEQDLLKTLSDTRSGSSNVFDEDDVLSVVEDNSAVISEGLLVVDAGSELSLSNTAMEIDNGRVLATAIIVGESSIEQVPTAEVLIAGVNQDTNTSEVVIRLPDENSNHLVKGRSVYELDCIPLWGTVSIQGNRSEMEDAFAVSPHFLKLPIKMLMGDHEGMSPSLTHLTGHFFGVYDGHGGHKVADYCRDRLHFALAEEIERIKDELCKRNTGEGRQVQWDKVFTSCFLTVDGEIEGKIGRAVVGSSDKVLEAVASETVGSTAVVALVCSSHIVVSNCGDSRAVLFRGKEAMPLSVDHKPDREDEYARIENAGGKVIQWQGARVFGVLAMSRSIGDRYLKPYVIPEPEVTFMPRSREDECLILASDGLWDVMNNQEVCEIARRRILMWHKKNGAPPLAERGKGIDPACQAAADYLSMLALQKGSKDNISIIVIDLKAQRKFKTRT
The assay can be described thus: Yeast two-hybrid LacZ reporter assay (pAD-HAB1 YRG-2 strain). Type of assay: cell-based. As to the method:
(§1) Plasmids for three representative mutant clones (27-9, 27-18, and 27-36) were isolated from the primary yeast cells and transformed into a pAD-HAB1 expressing YRG-2 reporter strain (Park et al., Science 324:1068-1071 (2009)) in which Ga14 drives expression of a LacZ reporter gene to allow colorimetric indication of agonist response. Fenhexamid was applied at concentrations of 1, 5, 10, 25, and 50 μM. […] Mutant 27-36 was responsive to fenhexamid at 25 and 50 μM concentrations.
Background: In a reporter assay the amount or activity of a reporter protein is the signal.

Assay [6] addresses T3, PYR1 mutant 27-18 (Arabidopsis thaliana, UniProt O49686, K59R/S47P/Y120H).
T3 construct: expressed in transfected cells; host or cells: S. cerevisiae YRG-2 expressing pAD-HAB1
The description is as above. The conditions noted are these: 1, 5, 10, 25, and 50 μM. Type of assay: cell-based. As to the method:
as §1

Assay [7] concerns the target T4, PYR1 mutant 27-36 (Arabidopsis thaliana, UniProt O49686, E12G/E43G/I110S/K59R/N133D).
T4 construct: expressed in transfected cells; host or cells: S. cerevisiae YRG-2 expressing pAD-HAB1
The description is as above. Type of assay: cell-based. The settings on record: 25 and 50 μM (applied 1-50 μM). The method, then: as §1

pIC50: −log10 of the molar value.

T4 sequence (Q9CAJ0 23-511): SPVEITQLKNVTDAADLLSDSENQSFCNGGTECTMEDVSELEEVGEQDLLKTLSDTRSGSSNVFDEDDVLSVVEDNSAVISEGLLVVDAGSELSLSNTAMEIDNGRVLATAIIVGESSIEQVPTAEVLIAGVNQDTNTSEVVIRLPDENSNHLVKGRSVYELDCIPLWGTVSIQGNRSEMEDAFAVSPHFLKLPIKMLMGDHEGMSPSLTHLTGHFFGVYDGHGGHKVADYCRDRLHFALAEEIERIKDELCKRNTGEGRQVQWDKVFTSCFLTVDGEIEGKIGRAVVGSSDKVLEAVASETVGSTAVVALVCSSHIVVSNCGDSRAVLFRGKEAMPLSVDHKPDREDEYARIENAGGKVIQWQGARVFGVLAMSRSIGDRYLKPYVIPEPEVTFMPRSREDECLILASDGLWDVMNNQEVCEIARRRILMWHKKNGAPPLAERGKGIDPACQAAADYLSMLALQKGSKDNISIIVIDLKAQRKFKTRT
T4 sequence (O49686 whole entry E12G/E43G/K59R/I110S/N133D): as the sequence (O49686 whole entry P42S/K59R/Y120C/E153G) above, with E12G, S42P, E43G, I110S, C120Y, N133D, G153E counted along it
T3 sequence (O49686 whole entry S47P/K59R/Y120H): as the sequence (O49686 whole entry P42S/K59R/Y120C/E153G) above, with S42P, S47P, C120H, G153E counted along it
T3 sequence (Q9CAJ0 23-511, stated change not applied, further chain): as the sequence (Q9CAJ0 23-511) above
T1 sequence (O49686 whole entry K59R/Y120H/M158I): as the sequence (O49686 whole entry P42S/K59R/Y120C/E153G) above, with S42P, C120H, G153E, M158I counted along it
T1 sequence (Q9CAJ0 23-511, further chain): as the sequence (Q9CAJ0 23-511) above

One may read the pIC50 as the negative decadic logarithm of the IC50, by convention in mol/L. In the case of `CC1(C(=O)Nc2ccc(O)c(Cl)c2Cl)CCCCC1` [fenhexamid], the pIC50 in assay [1] is roughly 6.40. The “ability to reduce ABA-promoted PYR/PYL-PP2C protein-protein interactions” value in assay [2] is given as “compete for ABA”. The “Growth in response to fenhexamid (selection)” value is “fenhexamid-responsive” in assay [3] and “fenhexamid responsive” in assay [4]. The “Response to fenhexamid (LacZ staining)” value in assay [5] (1 μM) is recorded as “weakly positive”; in assay [5] (5, 10, 25, and 50 μM), “strongly responded”; in assay [6], “strongly responded”; in assay [7], “responsive”.
